≈ marks a conversion by molar mass, not a printed value. One block for each molecule: values may come before it.
What was measured:
Experiment in all cases: ≥ marks a high value that may be exact or a test limit, other limits are often not marked, values filed in µg/mL are converted to µM
[1] = system: Staphylococcus aureus ATCC 25923
[2] = system: Staphylococcus epidermidis ATCC 12228
[3] = system: Trichophyton rubrum ATCC 28189
[4] = system: Candida albicans ATCC 90028
[5] = system: Escherichia coli ATCC 25922
[6] = system: Candida albicans ATCC 24433
[7] = system: Candida albicans ATCC 10231
[8] = system: Enterococcus faecalis PCM 2673
[9] = system: Pseudomonas aeruginosa ATCC 9027
Shigella dysenteriae = system: Shigella dysenteriae
[10] = system: Pseudomonas aeruginosa CMCCB 10104
[11] = system: Staphylococcus aureus ATCC 2592
[12] = system: Candida albicans ATCC 2002
Bacillus megaterium = system: Bacillus megaterium
Klebsiella pneumoniae = system: Klebsiella pneumoniae
Escherichia coli ML-35p = system: Escherichia coli ML-35p
[13] = system: Staphylococcus aureus RN4220
[14] = system: Salmonella enterica subsp. enterica serovar Pullorum C79-13
[15] = system: Staphylococcus aureus ATCC 29213
[16] = system: Bacillus subtilis CMCC 63501
Escherichia coli UB1005 = system: Escherichia coli UB1005
[17] = system: Salmonella enterica subsp. enterica serovar Typhimurium ATCC 14028
[18] = system: Pseudomonas aeruginosa ATCC 27853
[19] = system: Enterococcus faecalis ATCC 29212
[20] = system: Listeria monocytogenes EGD
Staphylococcus aureus = system: Staphylococcus aureus
[21] = system: Candida parapsilosis ATCC 22019
Escherichia coli = system: Escherichia coli
[22] = system: Listeria monocytogenes LO28
[23] = system: Cronobacter sakazakii DPC 6440

- MIC [1]: 4 µM (≈ 9.02 µg/mL)
- MIC [2]: 5.33 µM (≈ 12 µg/mL)
- MIC [3]: ≥ 32 µM
- MIC [4]: 8 µM (≈ 18 µg/mL)
SMILES: CC[C@H](C)[C@H](NC(=O)[C@H](Cc1ccc(O)cc1)NC(=O)[C@H](CC(N)=O)NC(=O)[C@H](CC(N)=O)NC(=O)[C@H](Cc1ccccc1)NC(=O)[C@@H](N)CC(C)C)C(=O)N[C@H](C(=O)N[C@@H](C)C(=O)N[C@@H](C)C(=O)N[C@@H](CC(C)C)C(=O)N[C@@H](CCCCN)C(=O)N[C@@H](CC(C)C)C(=O)N[C@@H](CC(C)C)C(=O)N[C@@H](CCC(=O)O)C(=O)N[C@@H](CCCCN)C(=O)N[C@@H](CC(C)C)C(=O)N[C@@H](Cc1ccc(O)cc1)C(=O)N[C@@H](CCCCN)C(=O)N[C@H](C(N)=O)C(C)C)[C@@H](C)O [LFNNYITAALKLLEKLYKV]

- MIC [2]: > 100 µM
- MIC [5]: > 100 µM
- MIC [6]: ≥ 100 µM
SMILES: CC(C)C[C@H](NC(=O)CNC(=O)CNC(=O)CNC(=O)[C@H](C)NC(=O)[C@H](CC(C)C)NC(=O)[C@H](CC(N)=O)NC(=O)CNC(=O)[C@H](CC(C)C)NC(=O)[C@H](CC(C)C)NC(=O)CNC(=O)[C@@H](NC(=O)[C@@H](NC(=O)[C@H](CO)NC(=O)[C@H](CC(N)=O)NC(=O)[C@H](CC(C)C)NC(=O)[C@H](CC(C)C)NC(=O)CNC(=O)[C@H](CO)NC(=O)[C@@H](NC(=O)[C@H](CC(C)C)NC(=O)CN)C(C)C)C(C)C)[C@@H](C)O)C(=O)O [GLVSGLLNSVTGLLGNLAGGGL]

- MIC [1]: 343 µM (≈ 512 µg/mL)
- MIC [5]: 85.6 µM (≈ 128 µg/mL)
- MIC [7]: 85.6 µM (≈ 128 µg/mL)
- MIC [8]: ≥ 85.6 µM
- MIC [9]: 343 µM (≈ 512 µg/mL)
SMILES: CC[C@H](C)[C@H](NC(=O)[C@H](CCCCN)NC(=O)[C@H](CCCCN)NC(=O)[C@@H](NC(=O)[C@@H](NC(=O)[C@H](CC(=O)O)NC(=O)[C@H](Cc1ccccc1)NC(=O)[C@H](CC(C)C)NC(=O)[C@H](C)N)[C@@H](C)CC)[C@@H](C)CC)C(=O)N[C@@H](C)C(=O)N[C@@H](CCC(=O)O)C(=O)N[C@@H](CO)C(=O)N[C@@H](Cc1ccccc1)C(N)=O [ALFDIIKKIAESF]

- MIC (Shigella dysenteriae): 1.01 µM (≈ 2.7 µg/mL)
- MIC [10]: 7.29 µM (≈ 19.5 µg/mL)
- MIC [11]: 7.29 µM (≈ 19.5 µg/mL)
- MIC [12]: 1.12 µM (≈ 3 µg/mL)
- MIC [5]: 7.29 µM (≈ 19.5 µg/mL)
- MIC (Bacillus megaterium): 7.29 µM (≈ 19.5 µg/mL)
- MIC (Klebsiella pneumoniae): 3.36 µM (≈ 9 µg/mL)
SMILES: CC[C@H](C)[C@H](N=C(O)CN)C(O)=NCC(O)=N[C@H](C(O)=N[C@@H](CCCCN)C(O)=N[C@H](C(O)=N[C@@H](CC(C)C)C(O)=NCC(O)=NCC(O)=N[C@H](C(O)=N[C@@H](CCCCN)C(O)=N[C@H](C(O)=N[C@@H](C)C(O)=N[C@@H](CC(C)C)C(O)=N[C@@H](CCCCN)C(O)=NCC(O)=N[C@@H](C)C(O)=N[C@@H](CC(C)C)C(O)=N[C@@H](CCCCN)C(O)=N[C@@H](CCC(=O)O)C(O)=N[C@@H](CC(C)C)C(O)=N[C@@H](C)C(O)=N[C@@H](CO)C(O)=N[C@H](C(O)=N[C@@H](Cc1ccc(O)cc1)C(O)=N[C@@H](C)C(O)=N[C@@H](CC(=N)O)C(=N)O)[C@@H](C)O)[C@@H](C)O)C(C)C)[C@@H](C)CC)[C@@H](C)O [GIGTKILGGVKTALKGALKELASTYAN]

- MIC (Escherichia coli ML-35p): 25 µM (≈ 37.8 µg/mL)
- MIC [13]: ≥ 100 µM
SMILES: NC(=O)[C@H](CCCN=C(N)N)NC(=O)[C@H](CCCN=C(N)N)NC(=O)[C@H](Cc1c[nH]c2ccccc12)NC(=O)[C@H](CCCN=C(N)N)NC(=O)[C@H](CCCN=C(N)N)NC(=O)[C@H](Cc1c[nH]c2ccccc12)NC(=O)[C@H](Cc1c[nH]c2ccccc12)NC(=O)[C@H](CCCN=C(N)N)NC(=O)[C@@H](N)CCCN=C(N)N [RRWWRRWRR]

- MIC [14]: 8 µM (≈ 11.4 µg/mL)
- MIC [15]: 32 µM (≈ 45.7 µg/mL)
- MIC [16]: 8 µM (≈ 11.4 µg/mL)
- MIC (Escherichia coli UB1005): 8 µM (≈ 11.4 µg/mL)
- MIC [2]: 32 µM (≈ 45.7 µg/mL)
- MIC [5]: 8 µM (≈ 11.4 µg/mL)
- MIC [17]: 32 µM (≈ 45.7 µg/mL)
- MIC [18]: 32 µM (≈ 45.7 µg/mL)
- MIC [19]: 32 µM (≈ 45.7 µg/mL)
SMILES: CC[C@H](C)[C@H](NC(=O)[C@H](CCCCN)NC(=O)[C@H](C)NC(=O)[C@H](C)NC(=O)[C@H](C)NC(=O)[C@H](CCCCN)NC(=O)[C@H](C)NC(=O)[C@H](C)NC(=O)[C@H](C)NC(=O)[C@H](CCCCN)NC(=O)[C@@H](NC(=O)[C@@H](N)Cc1c[nH]c2ccccc12)[C@@H](C)CC)C(=O)N[C@@H](Cc1c[nH]c2ccccc12)C(N)=O [WIKAAAKAAAKIW]

- MIC [1]: 8 µM (≈ 18 µg/mL)
- MIC [5]: 8 µM (≈ 18 µg/mL)
- MIC [18]: 2 µM (≈ 4.49 µg/mL)
- MIC [20]: 1 µM (≈ 2.24 µg/mL)
SMILES: CC[C@H](C)[C@H](NC(=O)[C@H](C)NC(=O)[C@H](CCCCN)NC(=O)[C@@H](NC(=O)[C@H](CC(C)C)NC(=O)[C@H](C)NC(=O)CNC(=O)[C@@H](NC(=O)[C@H](CCCCN)NC(=O)[C@H](Cc1ccccc1)NC(=O)[C@H](Cc1ccc(O)cc1)NC(=O)[C@H](CCCCN)NC(=O)[C@H](CCCCN)NC(=O)[C@H](CC(C)C)NC(=O)[C@@H](NC(=O)CNC(=O)[C@@H](NC(=O)[C@@H](N)CCCCN)[C@@H](C)CC)C(C)C)[C@@H](C)CC)[C@@H](C)CC)C(=O)N[C@H](C(=O)N[C@@H](CCCCN)C(N)=O)[C@@H](C)CC [KIGVLKKYFKIGALIKAIIK]

- MIC [1]: 128 µM (≈ 287 µg/mL)
- MIC [5]: 128 µM (≈ 287 µg/mL)
- MIC [18]: 128 µM (≈ 287 µg/mL)
- MIC [20]: ≥ 128 µM
SMILES: CC[C@H](C)[C@H](NC(=O)[C@H](C)NC(=O)[C@@H](NC(=O)[C@@H](NC(=O)[C@@H](NC(=O)CNC(=O)[C@H](CCCCN)NC(=O)[C@H](CCCCN)NC(=O)CNC(=O)[C@@H](N)CCCCN)C(C)C)[C@@H](C)CC)[C@@H](C)CC)C(=O)N[C@@H](CC(C)C)C(=O)N[C@@H](CC(C)C)C(=O)N[C@@H](Cc1ccccc1)C(=O)N[C@@H](C)C(=O)N[C@H](C(=O)N[C@H](C(=O)N[C@@H](Cc1ccc(O)cc1)C(=O)N[C@@H](CCCCN)C(=O)N[C@@H](CCCCN)C(=O)N[C@@H](CCCCN)C(N)=O)[C@@H](C)CC)[C@@H](C)CC [KGKKGVIIAILLFAIIYKKK]

- MIC (Staphylococcus aureus): > 272 µM
- MIC [21]: ≥ 272 µM
- MIC (Escherichia coli): > 272 µM
- MIC [3]: ≥ 272 µM
- MIC [6]: ≥ 272 µM
SMILES: CC[C@H](C)[C@H](NC(=O)[C@H](CC(C)C)NC(=O)[C@H](CC(=O)O)NC(=O)[C@H](CO)NC(=O)[C@H](CCCN=C(N)N)NC(=O)[C@@H](N)CO)C(=O)N[C@H](C(=O)N[C@@H](Cc1cnc[nH]1)C(=O)N[C@@H](CCC(N)=O)C(=O)N[C@@H](CCCN=C(N)N)C(=O)N[C@@H](CC(C)C)C(=O)N[C@@H](Cc1ccccc1)C(N)=O)C(C)C [SRSDLIVHQRLF]

- MIC [1]: > 360 µM
- MIC [5]: 89.9 µM (≈ 128 µg/mL)
- MIC [7]: 45 µM (≈ 64 µg/mL)
- MIC [8]: ≥ 45 µM
- MIC [9]: > 360 µM
SMILES: CC[C@H](C)[C@H](NC(=O)[C@H](C)NC(=O)[C@H](CCCCN)NC(=O)[C@@H](NC(=O)[C@@H](NC(=O)[C@H](CC(=O)O)NC(=O)[C@H](Cc1ccccc1)NC(=O)[C@H](CC(C)C)NC(=O)CN)[C@@H](C)CC)[C@@H](C)CC)C(=O)N[C@@H](C)C(=O)N[C@@H](CCC(=O)O)C(=O)N[C@@H](CO)C(=O)N[C@@H](Cc1ccccc1)C(N)=O [GLFDIIKAIAESF]

- MIC [22]: 19.5 µM (≈ 36.1 µg/mL)
- MIC [23]: ≥ 78.1 µM
SMILES: CC[C@H](C)[C@H](NC(=O)[C@@H](N)Cc1c[nH]c2ccccc12)C(=O)N[C@@H](C)C(=O)N1CCC[C@H]1C(=O)N[C@@H](CCCCN)C(=O)N[C@H](C(=O)N[C@@H](CCCCN)C(=O)N[C@H](C(=O)N[C@H](C(=O)N1CCC[C@H]1C(=O)N[C@@H](Cc1ccc(O)cc1)C(=O)N[C@H](C(=O)N[C@@H](CCCN=C(N)N)C(=O)N[C@@H](Cc1ccc(O)cc1)C(=O)N[C@@H](CC(C)C)C(=O)O)C(C)C)[C@@H](C)CC)C(C)C)[C@@H](C)O [WIAPKTKVIPYVRYL]
